Reference: the supplement of paper PMC10307832

Experiments:
Experiment in all cases: relative viability (nuclei count vs DMSO), 5 days (fraction); higher = more cells survive
[1] = compound: OCc1c[nH]c2ccccc12 [Indole-3-carbinol] + N=C(N)NC(=N)NCCc1ccccc1 [Phenformin] (partner 250 µM)
Procedure, shortened: (§1)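 Relative viability divides the nuclei count in treated wells by that in vehicle wells. Lung cancer cell lines were seeded in 1536-well plates, dosed by pin tool the next day, and fixed and stained after 5 days in one step with final 0.05% Triton X-100, 1% formaldehyde and 1 ug/ml Hoechst. Dosing was a single drug or a fixed anchor-drug dose plus five library-drug doses (not always all listed) in √10 steps, and values are medians of duplicate plates imaged at 4×.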

[2] = compound: OCc1c[nH]c2ccccc12 [Indole-3-carbinol] + Cc1nc(NC(=O)N2CCC[C@H]2C(N)=O)sc1-c1ccnc(C(C)(C)C(F)(F)F)c1 [Alpelisib] (partner 2 µM)
Procedure, shortened: as §1

[3] = compound: OCc1c[nH]c2ccccc12 [Indole-3-carbinol] + COc1cccc2cc(-c3nc([C@H]4CC[C@H](C(=O)O)CC4)n4ncnc(N)c34)[nH]c12 [OSI-027] (partner 0.5 µM)
Procedure, shortened: as §1

[4] = compound: OCc1c[nH]c2ccccc12 [Indole-3-carbinol] + C[C@@H](Oc1cc(-c2cnn(C3CCNCC3)c2)cnc1N)c1c(Cl)ccc(F)c1Cl [Crizotinib] (partner 1 µM)
Procedure, shortened: as §1

[5] = compound: OCc1c[nH]c2ccccc12 [Indole-3-carbinol] + COc1cc2c(Oc3ccc(NC(=O)C4(C(=O)Nc5ccc(F)cc5)CC4)cc3F)ccnc2cc1OCCCN1CCOCC1 [Foretinib] (partner 0.25 µM)
Procedure, shortened: as §1

Cell Line	relative viability ([1]; first compound 0.253 µM)	relative viability ([1]; first compound 0.8 µM)	relative viability ([1]; first compound 2.53 µM)	relative viability ([1]; first compound 8 µM)	relative viability ([2]; first compound 0.253 µM)	relative viability ([2]; first compound 0.8 µM)	relative viability ([2]; first compound 2.53 µM)	relative viability ([2]; first compound 8 µM)	relative viability ([3]; first compound 0.253 µM)	relative viability ([3]; first compound 0.8 µM)	relative viability ([3]; first compound 2.53 µM)	relative viability ([3]; first compound 8 µM)	relative viability ([4]; first compound 0.253 µM)	relative viability ([4]; first compound 0.8 µM)	relative viability ([4]; first compound 2.53 µM)	relative viability ([4]; first compound 8 µM)	relative viability ([5]; first compound 0.253 µM)	relative viability ([5]; first compound 0.8 µM)	relative viability ([5]; first compound 2.53 µM)	relative viability ([5]; first compound 8 µM)
PC-14	0.586	0.536	0.582	0.5	0.995	0.955	0.888	0.93	0.756	0.828	0.873	0.706	0.936	1.04	0.903	0.883	0.961	0.842	0.987	0.913
RERF-LC-KJ	0.392	0.415	0.428	0.401	0.841	0.783	0.814	0.83	0.556	0.545	0.585	0.601	0.862	0.917	0.84	0.793	0.873	0.932	0.815	0.819
SK-LU-1	0.582	0.57	0.58	0.534	1.01	1.03	1.07	0.99	0.359	0.322	0.382	0.314	1.01	1.01	0.989	0.823	0.851	0.836	0.911	0.763
SK-MES-1	0.689	0.733	0.693	0.61	0.908	0.979	0.833	0.764	0.596	0.642	0.588	0.537	0.996	1.07	1.03	0.965	1.03	0.922	0.946	0.882
SW 1573	0.34	0.449	0.404	0.363	0.724	0.833	0.822	0.761	0.639	0.593	0.804	0.521	0.722	0.936	0.833	0.678	1.12	1.04	1.02	0.812
UMC-11	0.33	0.319	0.339	0.324	0.933	1.02	0.981	0.955	0.443	0.495	0.464	0.472	0.589	0.708	0.696	0.577	0.914	1.1	1.05	1.09
